Here are results for two compounds from patent US20240238228A1, “COMPOSITIONS AND METHODS FOR TREATING ALLERGIES AND INFLAMMATORY CONDITIONS” (UNIVERSITY OF PITTSBURGH-OF THE COMMONWEALTH SYSTEM OF …, priority 2021, published 2024).

The test system of test [1] is allergic contact hypersensitivity (CHS). The following applies: NKA administration, cited from earlier work.
In test [2] the test system is mucosal MCs from the lung. The conditions noted are these: cited from earlier work.
Test [3] deals with BMMCs. The experiment in a line: MS/MS shotgun proteomics on BMMC releasate. The class given is cell-based, murine. Here is the method:
BMMCs (4×10^6) were activated in Tyrode's Buffer without BSA (500 μl) for 1 hour. Protease Inhibitor Cocktail (Sigma, containing aprotinin, bestatin, E-64, leupeptin and pepstatin A) was added to cell free supernatants. Supernatants were concentrated using Amicon Ultra Centrifugal Filters-3K (EID Millipore). Protein concentrations were quantified with the BCA Protein Assay Kit (ThermoFisher). Tryptic peptides were generated with the filter-aided sample preparation method, desalted with C18 spin columns and dried in aspeedvac. Peptides were reconstituted in 0.5% formic acid in 96:4 water:acetonitrile and resolved with liquid chromatography tandem mass spectrometry with a system composed of a Waters nanoACQUITY UPLC in-line with a Q-Exactive mass spectrometer (ThermoFisher). Solvent A (0.1% formic acid in water, Burdick & Jackson) and solvent B (0.1% formic acid in acetonitrile, Burdick & Jackson) were used as the mobile phase. Peptides were then eluted from a capillary column (100 μm inner diameter×100 mm long; ACQUITY UPLC M-Class Peptide BEH C18 Column, 1.7-μm particle size, 300 Å (Waters), and resolved using a 100-min gradient at a flow rate of 0.9 μL/min (4-33% B for 90 min, 33-80% B for 2 min, constant at 80% B for 6 min, and then 80-0% B for 2 min to equilibrate the column). Data were collected in positive ionization mode. PEAKSX software was used to sequence and identify peptides in each sample using a decoy search at a 1.0% false discovery rate using the UniProt murine database. Label-free quantitation was performed using the quantitative module in the PEAKSX software. The MS proteomics data have been deposited to the ProteomeXchange Consortium via the PRIDE partner repository with the dataset identifier PXD021377. Pathway analysis for expressed proteins was done using the Panther Classification System.

The subject of a further test is ABCA1. The experiment in a line: Surface ABCA1 expression on activated PMCs (flow cytometry). The class given is cell-based, murine. The conditions noted are these: 30 minutes after IgE-initiated activation; NKA 1000 nM. Here is the method:
MCs were collected and washed with PBS containing 0.5% BSA and 0.1% sodium azide. Non-specific binding was inhibited using FcBlock (PBS with 2.0% goat serum and 0.25 mg/mL anti-CD16/32 (clone 2.4G2, BD Biosciences). Surface staining was done with anti-CD117 eFluor450 (clone 2B8, ThermoFisher), anti-FcεRI FITC (clone MAR-1, ThermoFisher) and anti-ABCA1 Alexa Fluor 647 (clone 5A1-1422, BioRad). Cells were washed with Wash Buffer (PBS with 0.5% BSA and 0.1% sodium azide). To detect differences in granulated proteins at the cell surface, IgE-loaded MCs were activated with DNP-HSA with or without NKA in Tyrode's Buffer for 30 min, washed with Wash Buffer then stained with Avidin Alexa Fluor488 (Invitrogen, Av488, 0.8 μg/5×10^5 cells) and anti-LAMP-1 PE (clone eBio 1D48, ThermoFisher). Data were acquired on either a LSRII or a Fortessa (BD BioSciences). Analysis was performed with FlowJo v10.4 (BD Biosciences).

Test [4] deals with BMMCs. Description: β-hexosaminidase release from BMMCs. The format is cell-based, murine. The conditions noted are these: incubated with NKA or activated with IgE and antigen in the presence of NKA. As for the experimental part: Mast cells (5×10^5-1×10^6) were loaded with IgE ([…]) for a minimum of 3 h in Tyrode's Buffer. Neurokinin A ([…]) was added with DNP-HSA (Sigma, as indicated or 100 ng/mL) for 40 min at 37 C. Cells and supernatants were collected, cell pellets were lysed in Tyrode's Buffer by freeze-thawing then incubated with p-nitrophenyl N-acetyl j-D-glucosaminide (EMB Millipore, 5 mM) dissolved in citrate buffer (0.04 M, pH 4.5) for 90 minutes. The enzymatic reaction was stopped with glycine (0.4 M, pH 10.7). Absorbance at 450 nm was read. The average percentage of b-hexosaminidase release from triplicate values was calculated as (ODsup/ODsup+ODlysate)×100(%).

For the next test, the system named is MCs. The following applies: previous studies; cited from earlier work.
The next test concerns IL10 mRNA. The experiment in a line: IL10 mRNA in ear skin 3 h after NKA injection. The class given is in vivo, mouse. Here is the method: Total RNA was isolated from either MCs or murine ear tissue 3 h hours after NKA injection. Tissue was homogenized in Navy RINO tubes (Next Advance) in a Bullet Blender Storm (Next Advance). RNA was extracted per standard methods with Trizol (Invitrogen). cDNA was reversed transcribed with the Quantitech Reverse Transcription Kit (Qiagen). PCR products were amplified with Fast SybrGreen (ABI) on a StepOne Plus Cycler ([…]) using the following primers: TNF […] NO: 5), TNF […] NO: 6); IL13 […] NO: 7), IL13 […] NO: 8); IL10 […] NO: 9); IL10 […] NO: 10); Bactin […] NO: 11); Bactin […] NO: 12). Data are presented as 2^-ΔΔCT using f-actin as the housekeeping gene and normalizing to either untreated cells or naïve control mice.

A further test relates to peanut allergy. Description: Peanut allergy desensitization by microneedle arrays. The class given is in vivo, mouse. The conditions noted are these: delivered with peanut antigen by microneedle arrays to sensitized mice.
For a further test, the system named is atopic dermatitis. Description: MC903-induced atopic dermatitis model. The format is in vivo, murine. The conditions noted are these: MC903 4 nmol/ear daily, glyburide 2.5 mg/kg, i.p. As for the experimental part: Atopic dermatitis was induced by treating ears with MC903 (4 nmol/ear, daily). The contralateral ear was treated with the vehicle for MC903. Mice were treated with either glyburide (2.5 mg/kg, i.p., daily) or vehicle control. (A) Ear thickness was measured daily. (B-C) On day 11, mice were euthanized and ear tissue embedded sectioned and stained with (B) H & E to evaluate cellular infiltration or (C) Avidin (AvRho) to evaluate mast cells. […] (B-C) show representative images from 3-7 mice over two experiments.

Another test has as its system inflammasome. The conditions noted are these: cited from earlier work.
In another test the test system is sepsis. The following applies: in vivo; cited from earlier work.

Where two headings read alike, the source gives them in different places.

Consider Neurokinin A [NKA], for which the “allergic contact hypersensitivity (CHS) in the skin” value is “blocks” in [1] and “inhibits inflammation” in test [1] (listed as Neurokinin A). The histamine release entry in test [2] is given as “induces histamine release”. For the same compound, in the test on BMMCs [3], the “release of proteases β-hexosaminidase, MC carboxypeptidase, cathepsin D and chymase” value is “unchanged”. Also, in the test with BMMCs [3], the “release of proteins associated with metabolism and cellular function pathways (pathway analysis)” value is given as “inhibited”. Further, the “number of proteins upregulated by NKA” value in the test with BMMCs [3] (BMMCs activated 60 minutes) amounted to 94. Besides, the “catalytic subunit of calpain 1 in releasate” value with BMMCs [3] (BMMCs activated in the presence of NKA) was “not detected”. Besides, the “ABCA1 detected on the cell surface” value in the test on ABCA1 is listed as “reduced the level of ABCA1”. The β-hexosaminidase release result with BMMCs [4] is “no difference”. Also, in the test on MCs, the “effect on MCs (β-hexosaminidase or histamine release as readouts)” value was “no effect”. Further, the “IL10 mRNA in the skin” value in the test with IL10 mRNA (MC-deficient (Mcpt5Cre^+×Rosa26DTA^+) mice) is on record as “no difference”. Moreover, the “IL10 mRNA levels in the skin” value in the test on IL10 mRNA (MC-sufficient (Mcpt5Cre^−×Rosa26DTA^+) mice) is listed as “significantly increased”.
For the compound `COc1ccc(Cl)cc1C(=O)NCCc1ccc(S(=O)(=O)NC(=O)NC2CCCCC2)cc1` [glyburide, reference compound], in the test on peanut allergy, the “allergy to peanut allergen after CPE challenge” value is listed as “desensitizes”. For the same compound, the cutaneous inflammation entry in the test on atopic dermatitis is “reduces cutaneous inflammation”. In addition, in the test with inflammasome, the inflammasome entry is recorded as “inhibits”. Moreover, in the test on sepsis, the “effect in diabetic patients in sepsis” value was “anti-inflammatory and protective”.
